From article PMC9822021, “Biological Activity of Amidino-Substituted Imidazo [4,5-b]pyridines” (Molecules, 2022)
In brackets after ≈: the same amount, converted by molar mass.

Legend:
[1] = tested on: HCT-116 colorectal carcinoma cells; experiment: In vitro antiproliferative activity, MTS proliferation assay; assay type: cell-based; details: Homo sapiens, 72 h
Excerpt: (§1) Human cancer cell lines used in this manuscript, namely Capan-1, HCT-116, NCI-H460, LN-229, HL-60, K-562, Z-138, SW620, PC3 and HeLa, were acquired from the American Type Culture Collection (ATCC, Manassas, VA, USA), while the DND-41 cell line was purchased from the Deutsche Sammlung von Mikroorganismen und Zellkulturen (DSMZ Leibniz-Institut, Germany). Culture media were purchased from Gibco Life Technologies, USA, and supplemented with 10% fetal bovine serum (HyClone, GE Healthcare Life Sciences, Chicago, IL, USA), except for the media for SW620, PC3 and HeLa cells, which were purchased from Sigma.
(§2) Adherent cell lines LN-229, HCT-116, NCI-H460 and Capan-1 cells were seeded at a density between 500 and 1500 cells per well in 384-well tissue culture plates (Greiner). […]. Cells were incubated for 72 h with compounds and were then analyzed using the CellTiter 96® AQueous One Solution Cell Proliferation Assay (MTS) reagent (Promega) according to the manufacturer’s instructions. Absorbance of the samples was measured at 490 nm using a SpectraMax Plus 384 (Molecular Devices), and OD values were used to calculate the 50% inhibitory concentration (IC50). Compounds were tested in two independent experiments. SW620, PC3 and HeLa cells were seeded in 96-well microtiter plates at 1 × 10^4 to 3 × 10^4 cells/mL, depending on the doubling times of the specific cell line. Test agents were then added in five 10-fold dilutions (10^−8 to 10^−4 M). Working dilutions were freshly prepared on the day of testing. After 72 h of incubation, the cell growth rate was evaluated using the MTT assay as described previously. Absorbance of the samples was measured at 570 nm, and OD values were used to calculate the 50% inhibitory concentration (IC50). Each test was performed in quadruplicate in at least two individual experiments.

[2] = tested on: K-562 chronic myeloid leukemia cells; experiment: as above; assay type: cell-based; details: Homo sapiens, K562, 72 h
Excerpt: as §1, §2

[3] = tested on: LN-229 glioblastoma cells; experiment: as above; assay type: cell-based; details: Homo sapiens, 72 h
Excerpt: as §1, §2

[4] = tested on: NCI-H460 lung carcinoma cells; experiment: as above; assay type: cell-based; details: Homo sapiens, 72 h
Excerpt: as §1, §2

[5] = tested on: Capan-1 pancreatic adenocarcinoma cells; experiment: as above; assay type: cell-based; details: Homo sapiens, 72 h
Protocol: (§3) Culture media were purchased from Gibco Life Technologies, USA, and supplemented with 10% fetal bovine serum (HyClone, GE Healthcare Life Sciences, Chicago, IL, USA), except for the media for SW620, PC3 and HeLa cells, which were purchased from Sigma.
(§4) Cells were incubated for 72 h with compounds and were then analyzed using the CellTiter 96® AQueous One Solution Cell Proliferation Assay (MTS) reagent (Promega) according to the manufacturer’s instructions. […] Compounds were tested in two independent experiments. SW620, PC3 and HeLa cells were seeded in 96-well microtiter plates at 1 × 10^4 to 3 × 10^4 cells/mL, depending on the doubling times of the specific cell line. Test agents were then added in five 10-fold dilutions (10^−8 to 10^−4 M). Working dilutions were freshly prepared on the day of testing. After 72 h of incubation, the cell growth rate was evaluated using the MTT assay as described previously. […] Each test was performed in quadruplicate in at least two individual experiments.

[6] = tested on: DND-41 acute lymphoblastic leukemia cells; experiment: as above; assay type: cell-based; details: Homo sapiens, DND41, 72 h
Protocol: as §3, §4

[7] = tested on: HL-60 acute myeloid leukemia cells; experiment: as above; assay type: cell-based; details: Homo sapiens, 72 h
Protocol: as §3, §4

[8] = tested on: Z-138 non-Hodgkin lymphoma cells; experiment: as above; assay type: cell-based, human; details: Homo sapiens, Z-138, 72 h
Excerpt: as §1, §2

[9] = tested on: HeLa cervical carcinoma cells; experiment: In vitro antiproliferative activity, MTT assay; assay type: cell-based; details: Homo sapiens, 72 h
Excerpt: as §1, §2

[10] = tested on: PC3 prostate carcinoma cells; experiment: In vitro antiproliferative activity, MTT assay; assay type: cell-based; details: Homo sapiens, 72 h
Excerpt: as §1, §2

[11] = tested on: SW620 colon carcinoma cells; experiment: In vitro antiproliferative activity, MTT assay; assay type: cell-based; details: Homo sapiens, SW-620, 72 h
Excerpt: as §1, §2

[12] = tested on: E. coli ATCC 25922; experiment: Antibacterial activity in vitro, broth microdilution; assay type: cell-based; details: Escherichia coli, ATCC25922; broth microdilution (CLSI), 16–24 h at 37 °C
Protocol: (§5) Synthesized compounds were prepared as 10 mM DMSO solutions and tested in a final concentration range of 100–0.2 µM [34].
(§6) Broth microdilution testing was performed according to CLSI (Clinical Laboratory Standards Institute) guidelines. MIC (minimal inhibitory concentration) values were defined as the last tested concentration of the compound at which there was no visible growth of bacteria. Inoculums for each microorganism were prepared using the direct colony suspension method, where broth solutions that achieved turbidity equivalent to 0.5 McFarland standard were additionally diluted 100× with Ca-adjusted MH media (Becton Dickinson).

[13] = tested on: S. Pneumoniae ATCC 49619; experiment: as above; assay type: cell-based; details: Streptococcus pneumoniae, ATCC49619; broth microdilution (CLSI), 16–24 h at 37 °C
Protocol: as §5, §6

[14] = tested on: S. aureus ATCC 29213; experiment: as above; assay type: cell-based; details: Staphylococcus aureus, ATCC29213; broth microdilution (CLSI), 16–24 h at 37 °C
Protocol: as §5, §6

[15] = tested on: E. coli Efflux Del; experiment: microbe, parasite or virus in culture; assay type: cell-based; details: Escherichia coli, read-out: MIC E. coli Efflux Del
Protocol: as §5, §6

[16] = in vitro; details: human
[17] = in vitro; details: human; remark: listed apart in the source
[18] = in vitro; details: dog
[19] = tested on: Influenza H1N1 (A/Ned/378/05); experiment: Antiviral CPE reduction assay; assay type: cell-based; details: Influenza A virus, MDCK cells
[20] = tested on: Influenza H3N2 (A/HK/7/87); experiment: Antiviral CPE reduction assay; assay type: cell-based; details: Influenza A virus, MDCK cells
[21] = tested on: Influenza B (B/Ned/537/05); experiment: Antiviral CPE reduction assay; assay type: cell-based; details: Influenza B virus, MDCK cells

Structure (SMILES) | IC50 [1] [µM] | IC50 [2] [µM] | IC50 [3] [µM] | IC50 [4] [µM] | IC50 [5] [µM] | IC50 [6] [µM] | IC50 [7] [µM] | IC50 [8] [µM] | IC50 [9] [µM] | IC50 [10] [µM] | IC50 [11] [µM] | MIC [12] [µM] | MIC [13] [µM] | MIC [14] [µM] | MIC [15] [µM] | CC50 [16] [µM] | CC50 [17] [µM] | CC50 [18] [µM] | melting point [°C] | further results
N#Cc1ccc(-c2nc3ncccc3[nH]2)cc1 [Compound 6, 4-(1H-Imidazo[4,5-b]pyridin-2-yl)benzonitrile] | > 100 | > 100 | > 100 | > 100 | > 100 | > 100 | > 100 | > 100 | 28.9 ± 7.2 | > 100 | > 100 | > 64 | > 64 | > 64 | > 64 | > 100 | > 100 | > 100 | – | –
CC1(C)S[C@@H]2[C@H](NC(=O)[C@H](N)c3ccccc3)C(=O)N2[C@H]1C(=O)O [Ampicillin, ampicillin, reference compound] | – | – | – | – | – | – | – | – | – | – | – | 1 (≈ 0.349 µg/mL) | < 0.125 | 1 (≈ 0.349 µg/mL) | – | – | – | – | – | –
CC(=O)N[C@H]1[C@H]([C@H](O)[C@H](O)CO)OC(C(=O)O)=C[C@@H]1N=C(N)N [Zanamivir, zanamivir, reference compound] | – | – | – | – | – | – | – | – | – | – | – | – | – | – | – | – | – | > 100 | – | EC50 [19]: 0.13 ± 0.04 µM; EC50 [20]: 16.8 ± 6.8 µM; EC50 [21]: 0.05 ± 0.03 µM
Cn1c(-c2ccccc2)nc2cc(Br)cnc21 [Compound 18, 6-Bromo-3-methyl-2-phenyl-3H-imidazo[4,5-b]pyridine] | > 100 | > 100 | > 100 | > 100 | > 100 | > 100 | > 100 | > 100 | 48 ± 0.2 | > 100 | > 100 | > 64 | > 64 | > 64 | > 64 | > 100 | > 100 | > 100 | 214 to 215 | –
CN[C@@H]1C[C@H]2O[C@@](C)([C@@H]1OC)n1c3ccccc3c3c4c(c5c6ccccc6n2c5c31)C(=O)NC4 [STS, staurosporine, reference compound] | 0.0701 ± 0.006 | 0.0374 ± 0.006 | 0.0668 ± 0.016 | 0.0448 ± 0.004 | – | – | – | 0.0484 ± 0.007 | – | – | – | – | – | – | – | – | – | – | – | –
CC(=O)O[C@@]12CO[C@@H]1C[C@H](O)[C@@]1(C)C(=O)[C@H](O)C3=C(C)[C@@H](OC(=O)[C@H](O)[C@@H](NC(=O)OC(C)(C)C)c4ccccc4)C[C@@](O)([C@@H](OC(=O)c4ccccc4)[C@H]21)C3(C)C [DTX, docetaxel, reference compound] | 0.0025 | 0.0085 ± 0.001 | 0.0041 ± 0.003 | 0.0034 | 0.0038 ± 0.003 | 0.0025 | 0.0022 | 0.0023 | – | – | – | – | – | – | – | – | – | – | – | –
Cn1c(-c2ccc(C#N)cc2)nc2cc(Br)cnc21 [Compound 19, 4-(6-Bromo-3-methyl-3H-imidazo[4,5-b]pyridin-2-yl)benzonitrile] | > 100 | > 100 | > 100 | > 100 | > 100 | > 100 | > 100 | > 100 | 26.1 ± 0.01 | 28.8 ± 15 | 63.8 ± 7.4 | > 64 | > 64 | > 64 | > 64 | > 100 | > 100 | > 100 | 234 to 235 | –
COc1cc([C@@H]2c3cc4c(cc3[C@@H](O[C@@H]3O[C@@H]5CO[C@@H](C)O[C@H]5[C@H](O)[C@H]3O)[C@H]3COC(=O)[C@H]23)OCO4)cc(OC)c1O [etoposide, reference compound] | – | – | – | – | – | – | – | – | 0.004 ± 0.001 | 11.6 ± 1.9 | 0.63 ± 0.1 | – | – | – | – | – | – | – | – | –
Cl.c1cnc2nc(-c3ccc(C4=NCCCN4)cc3)[nH]c2c1 [Compound 12, 2-(4-(1H-Imidazo[4,5-b]pyridin-2-yl)phenyl)-3,4,5,6-tetrahydropyrimidin-1-ium Chloride] | > 100 | > 100 | > 100 | > 100 | > 100 | > 100 | > 100 | > 100 | > 100 | > 100 | > 100 | > 64 | > 64 | > 64 | > 64 | > 100 | > 100 | > 100 | > 300 | –
COc1cccc2c1C(=O)c1c(O)c3c(c(O)c1C2=O)C[C@@](O)(C(=O)CO)C[C@@H]3O[C@H]1C[C@H](N)[C@H](O)[C@H](C)O1 [doxorubicine, reference compound] | – | – | – | – | – | – | – | – | 0.16 ± 0.05 | 0.13 ± 0.02 | 0.02 | – | – | – | – | – | – | – | – | –
CC(C)NC(=N)c1ccc(-c2nc3ncc(Br)cc3[nH]2)cc1.Cl [Compound 16, 4-(6-Bromo-1H-imidazo[4,5-b]pyridin-2-yl)-N-isopropylbenzimidamide Hydrochloride] | 77.2 ± 19.1 | 53.6 ± 2.8 | 52.4 ± 8.1 | > 100 | 52.7 ± 2.9 | 11.9 ± 0.1 | 91.4 ± 5.1 | 12.1 ± 0.8 | 13.3 ± 4.3 | 13.3 ± 2.6 | 7.4 ± 1.1 | > 64 | > 64 | > 64 | > 64 | – | – | 71.2 ± 40.8 | > 300 | –
CC(C)(O/N=C(\C(=O)N[C@@H]1C(=O)N2C(C(=O)[O-])=C(C[n+]3ccccc3)CS[C@H]12)c1csc(N)n1)C(=O)O [Ceftazidime, ceftazidime, reference compound] | – | – | – | – | – | – | – | – | – | – | – | 0.25 (≈ 0.137 µg/mL) | 0.25 (≈ 0.137 µg/mL) | 16 (≈ 8.75 µg/mL) | 0.25 (≈ 0.137 µg/mL) | – | – | – | – | –
C[C@@H](O)[C@H]1C(=O)N2C(C(=O)O)=C(S[C@@H]3CN[C@H](C(=O)N(C)C)C3)[C@H](C)[C@H]12 [Meropenem, meropenem, reference compound] | – | – | – | – | – | – | – | – | – | – | – | < 0.125 | < 0.125 | < 0.125 | < 0.125 | – | – | – | – | –
Cl.N=C(N)c1ccc(-c2nc3ncccc3[nH]2)cc1 [Compound 9, 4-(1H-Imidazo[4,5-b]pyridin-2-yl)benzimidamide Hydrochloride] | > 100 | > 100 | > 100 | > 100 | > 100 | > 100 | > 100 | > 100 | > 100 | > 100 | > 100 | > 64 | > 64 | > 64 | > 64 | > 100 | > 100 | > 100 | > 300 | –
